According to PubChem BioAssay AID486 (Columbia University Molecular Screening Center, 2006):
Calls of active or inactive are those of the source.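 Rule for the calls: active = ranking score of 15 or more out of 100, based on fitted potency or summed per-dose inhibition deviations; inactive = the rest.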

Test system: exon1htt(103Q)-mCFP cells, aggregate imaging, high-content
Assay: mutant huntingtin aggregate clearance potency, dose response, imaging, exon1htt(103Q)-mCFP cells, high-content imaging (AID 486)

Row | Compound | IC50
1 | COc1ccc(N2CCC(CNS(=O)(=O)c3cccc(C(F)(F)F)c3)C2)cc1 (stereo not given) | > 8 µM (inactive)
2 | Cc1ncoc1C(=O)Nc1cccc(Cl)c1C | > 8 µM (inactive)
3 | O=C(c1ccc(=O)[nH]c1)N(Cc1ccco1)C1(C(=O)NC2CCCC2)CCCCC1 | > 8 µM (inactive)
4 | COc1ccc(NC(=O)CCc2nc(-c3ccccc3F)no2)cc1 | > 8 µM (inactive)
5 | Cn1c(=O)n(C)c2cc(NC(=O)C(F)(F)F)ccc21 | > 8 µM (inactive)
6 | O=c1oc2c3c4c(cc2cc1-c1nc2ccccc2[nH]1)CCCN4CCC3 | > 8 µM (inactive)
7 | Cc1ccccc1-n1c(=O)cc(NCc2ccc3c(c2)OCO3)[nH]c1=O | > 8 µM (inactive)
8 | O=C(CSc1nnc(CNC(=O)c2c(F)cccc2Cl)o1)c1ccccc1 | > 8 µM (inactive)
9 | COc1ccc(CCNC(=O)C2=COCCO2)cc1 | > 8 µM (inactive)
10 | Cc1cc(NC(=O)c2ccc(Cl)cc2)no1 | > 8 µM (inactive)
11 | CCOc1ccc(NS(=O)(=O)c2ccc(OCC(=O)N3CCCC3)cc2)cc1 | > 8 µM (inactive)
12 | COc1ccc(CCNC(=O)c2ccc(N3CCCC3=O)cc2)cc1OC | > 8 µM (inactive)
13 | Cc1ccccc1OCC(O)CN (stereo not given) | > 8 µM (inactive)
14 | Cc1nc(C)n(C(C)CC(=O)O)n1 (stereo not given) | > 8 µM (inactive)
15 | CN(C)[C@@H]1C(=O)C(C(N)=O)=C(O)[C@@]2(O)C(=O)C3=C(O)c4c(O)ccc(Cl)c4[C@@H](O)[C@H]3C[C@@H]12 | < 0.01 µM
16 | CCOC(=O)c1sc(NC(=O)c2c(C)nn(Cc3ccccc3)c2C)cc1C | > 8 µM (inactive)
17 | COc1ccc(CNc2nc3nc(C)cc(C)n3n2)cc1OC | > 8 µM (inactive)
18 | CCN(CC)c1ccc2cc(-c3nc4ccccc4[nH]3)c(=O)oc2c1 | > 8 µM (inactive)
19 | Cn1c(-c2ccc(F)cc2)cnc1SCC(=O)Nc1ccccc1N1CCOCC1 | > 8 µM (inactive)
20 | Cc1ccnc(NC(=O)C2CCCN(S(=O)(=O)c3cnc[nH]3)C2)c1 (stereo not given) | > 8 µM (inactive)
21 | CC(C)(NC(=O)N1CCCC1)c1cccc(C(C)(C)NC(=O)N2CCCC2)c1 | > 8 µM (inactive)
22 | O=C(NC1CCCc2ccccc21)c1ccc(CNc2c(N3CCOCC3)c(=O)c2=O)cc1 (stereo not given) | > 8 µM (inactive)
23 | COc1ccc(-c2nc(C#N)c(N3CCOCC3)o2)cc1OC | > 8 µM (inactive)

Row | Compound | IC50
24 | CS(=O)(=O)N(CC(=O)NCCSCc1cccc(Cl)c1)c1ccc2c(c1)OCO2 | > 8 µM (inactive)
25 | COCCCNC(=O)C(Cc1ccccc1)NS(=O)(=O)c1ccc2c(c1)c(=O)n(C)c(=O)n2C (stereo not given) | > 8 µM (inactive)
26 | Cc1ccc(Nc2nc(N)nc(CN3CCN(Cc4ccc5c(c4)OCO5)CC3)n2)cc1 | > 8 µM (inactive)
27 | CCn1c(C(=O)N2CCCC(C(=O)NCCCc3ccccc3)C2)cc2sccc21 (stereo not given) | > 4 µM (inactive)
28 | CCOc1cc(C(=O)N2CCN(c3ccccc3)CC2)cc(OCC)c1OCC | > 8 µM (inactive)
29 | COc1cccc(/C=N/n2c(C)nc3ccccc32)c1OC | > 8 µM (inactive)
30 | COC(=O)c1c(N)nc(C)n1-c1ccc(OC)cc1 | > 8 µM (inactive)
31 | CN(C)c1ccc(O)c2c1CC1CC3[C@@H](N(C)C)C(=O)C(C(N)=O)=C(O)[C@]3(O)C(=O)C1=C2O (stereo not given in full) | < 0.1 µM
32 | Nc1cc(-c2ccccc2)ccc1O | > 8 µM (inactive)
33 | CCOC(=O)N1CCN(C(=O)c2ccc3c(=O)n(Cc4ccc(OC)cc4)c(=S)[nH]c3c2)CC1 | > 8 µM (inactive)
34 | Cc1cc(C)c(C)c(S(=O)(=O)Nc2ccc(O)cc2)c1C | > 8 µM (inactive)
35 | C=C(C)CSc1nnc(-c2cccc(S(=O)(=O)N(C)C)c2)n1-c1cc(OC)ccc1OC | > 8 µM (inactive)
36 | CCCCc1nccn1CCn1ccnc1CCCC | > 8 µM (inactive)
37 | O=C(CCN1CCN(c2ccc(F)cc2)CC1)Nc1ccccc1F | > 8 µM (inactive)
38 | Cc1nnc(SC(=O)N2c3ccccc3Sc3ccccc32)s1 | > 8 µM (inactive)
39 | O=C1NC(=O)C(CC(=O)N(Cc2ccco2)C2(C(=O)NC3CCCC3)CCCCC2)N1 (stereo not given) | > 8 µM (inactive)
40 | O=C(Nc1ncnc2sc3c(c12)CCCCC3)c1ccco1 | > 8 µM (inactive)
41 | COC(=O)c1oc2ccc(Br)cc2c1NC(C)=O | > 8 µM (inactive)
42 | Nc1nonc1NC(=O)CSc1nc2ccccc2s1 | > 8 µM (inactive)
43 | CCOC(=O)c1cc2c(=O)n3ccccc3nc2n(CCCOC)c1=NC(=O)C(C)(C)C | > 8 µM (inactive)
44 | CCn1ncc(C2=NOC(C(=O)NCc3ccccc3)C2)c1C (stereo not given) | > 8 µM (inactive)
45 | CN(C)[C@@H]1C(=O)C(C(N)=O)=C(O)[C@@]2(O)C(=O)C3=C(O)c4c(O)cccc4[C@@](C)(O)[C@H]3C[C@@H]12 | 0.08 µM
